Assay [1] concerns the target T1, Genome polyprotein (dengue virus type 2, UniProt P29990). As to the kind of experiment: Inhibition of DENV2 NS2B-NS3 protease using Boc-Gly-Arg-Arg-AMC as substrate by fluorometric analysis.
In assay [2] the target is T1, Genome polyprotein. As to the kind of experiment: Binding affinity to N terminal hexa histidine tagged DENV2 NS2B-NS3 protease assessed as apparent Ki by Dixon plot analysis. To be noted: read-out: Ki(app).

T1 sequence (P29990 1346-1475 limits assumed): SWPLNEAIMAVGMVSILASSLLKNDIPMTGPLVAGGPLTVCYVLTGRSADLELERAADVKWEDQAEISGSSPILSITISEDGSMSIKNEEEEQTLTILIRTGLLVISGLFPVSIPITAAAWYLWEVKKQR
T1 sequence (P29990 1476-2093 limits assumed): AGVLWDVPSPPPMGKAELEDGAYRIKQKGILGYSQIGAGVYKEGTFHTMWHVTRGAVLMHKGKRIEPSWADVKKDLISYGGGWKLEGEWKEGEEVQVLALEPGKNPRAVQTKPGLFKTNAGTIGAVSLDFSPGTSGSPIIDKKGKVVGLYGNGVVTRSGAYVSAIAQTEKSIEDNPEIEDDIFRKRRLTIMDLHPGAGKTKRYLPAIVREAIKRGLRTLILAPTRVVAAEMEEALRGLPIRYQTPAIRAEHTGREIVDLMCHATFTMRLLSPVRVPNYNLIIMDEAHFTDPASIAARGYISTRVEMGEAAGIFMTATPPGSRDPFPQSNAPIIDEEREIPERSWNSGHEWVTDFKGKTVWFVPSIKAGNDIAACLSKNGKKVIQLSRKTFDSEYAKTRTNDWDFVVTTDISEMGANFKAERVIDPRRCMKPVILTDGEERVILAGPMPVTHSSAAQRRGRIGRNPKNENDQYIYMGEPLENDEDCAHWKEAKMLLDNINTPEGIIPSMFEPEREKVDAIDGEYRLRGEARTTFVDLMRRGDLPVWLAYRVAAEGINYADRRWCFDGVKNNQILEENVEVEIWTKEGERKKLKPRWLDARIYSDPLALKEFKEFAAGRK

Compound `CC1OCCC1SSC[C@@H](NC(=O)c1ccc(C2(C(F)(F)F)N=N2)cc1)C(=O)Nc1nc2cc(O)c(O)cc2s1` (stereo partly specified) came in with a 50% inhibitory concentration (IC50) in assay [1] of 20 µM. The compound `O=C(Nc1nc2cc(O)c(O)cc2s1)c1ccc(C2(C(F)(F)F)N=N2)cc1` gave an IC50 in assay [1] of 9.97 µM. In addition, the Ki in assay [2] worked out at 6.32 µM. As to `O=C(CN(CC1CC2C=CC1C2)C(=O)c1ccc(C2(C(F)(F)F)N=N2)cc1)Nc1nc2cc(O)c(O)cc2s1` (stereo unspecified), half-maximal inhibition in assay [1] (IC50) was put at 17 µM. On the same count and under the same terms, next, `O=C(N[C@H](CS)C(=O)Nc1nc2cc(O)c(O)cc2s1)c1ccc(C2(C(F)(F)F)N=N2)cc1`: 13.4 µM; `CC(C)(C)SSC[C@@H](NC(=O)c1ccc(C2(C(F)(F)F)N=N2)cc1)C(=O)Nc1nc2cc(O)c(O)cc2s1`: 10.2 µM.

As a reminder, the IC50 is the concentration needed to halve the response being measured.

(Values after ChEMBL document CHEMBL5329209, “Designing photoaffinity tool compounds for the investigation of the DENV NS2B-NS3 protease allosteric binding pocket” (RSC Med Chem, 2023).)
